Experimental data as given in patent US10100058B2, “Fused heterocyclic compounds as CaM kinase inhibitors” (Gilead Sciences, Inc., priority 2016, dated 2018).

Each compound was assayed against recombinant CaMKIIδ (Homo sapiens (Human), UniProt Q13557) (assay: CaMKIIδ biochemical assay (HTRF)). Conditions: 10 pM CaMKIIδ, 110 nM calmodulin, 12 μM ATP, 1 hour; read-out: CAMKIID-HTRF-384V2 (IC50 - nM).
Description: CaMKIIδ Biochemical Assay
The biochemical activity of recombinant CaMKIIδ was measured by monitoring the phosphorylation of a target peptide using Homogenous Time Resolved Fluorescence (HTRF) technology from CisBio Bioassays.

Point of comparison: CN(C)c1cc(C(=O)N2CCCC[C@@H]2CN)cc(-c2cnn3ccc(-c4ccccc4)nc23)n1 [Example 118, (R)-(2-(aminomethyl)piperidin-1-yl)(2-(dimethylamino)-6-(5-phenylpyrazolo[1,5-a]pyrimidin-3-yl)pyridin-4-yl)methanone], IC50 5.29 nM. Against it:
- CCN(CC)[C@@H](C)CNC(=O)c1cc(-c2cnn3ccc(-c4cccs4)nc23)nc(N2CC[C@@H]2COC)c1 [Example 266, N—((S)-2-(diethylamino)propyl)-2-((R)-2-(methoxymethyl)azetidin-1-yl)-6-(5-(thiophen-2-yl)pyrazolo[1,5-a]pyrimidin-3-yl)isonicotinamide] — 12-fold lower, 0.46 nM
- CCN(CC)[C@@H](C)CNC(=O)c1cc(-c2cnn(CCC#N)c2)nc(-c2cnn3ccc(-c4cccs4)nc23)c1 [Example 341, (S)-2-(1-(2-cyanoethyl)-1H-pyrazol-4-yl)-N-(2-(diethylamino)propyl)-6-(5-(thiophen-2-yl)pyrazolo[1,5-a]pyrimidin-3-yl)isonicotinamide] — 35-fold lower, 0.15 nM
- CCC(=O)Nc1cc(C(=O)NC[C@H](C)N(CC)CC)cc(-c2cnn3ccc(-c4cccs4)nc23)n1 [Example 188, (S)—N-(2-(diethylamino)propyl)-2-propionamido-6-(5-(thiophen-2-yl)pyrazolo[1,5-a]pyrimidin-3-yl)isonicotinamide] — 12-fold lower, 0.43 nM
- O=C(c1ccnc(-c2cnn3ccc(-c4ccccc4)nc23)c1)N1C2CCCC1CNCC2 (stereo not shown) [Example 91] — 6.2-fold higher, 32.8 nM
- O=C(NCC1CCCCCN1)c1ccnc(-c2cnn3ccc(-c4cccs4)nc23)c1 (stereo not shown) [Example 16, N-(azepan-2-ylmethyl)-2-(5-(thiophen-2-yl)pyrazolo[1,5-a]pyrimidin-3-yl)isonicotinamide] — 11-fold higher, 60 nM
- O=C(NCC1CCCCN1)c1ccnc(-c2cnn3ccc(-c4cccs4)nc23)c1 (stereo not shown) [Example 19, N-(piperidin-2-ylmethyl)-2-(5-(thiophen-2-yl)pyrazolo[1,5-a]pyrimidin-3-yl)isonicotinamide] — 17-fold higher, 89.3 nM
- CN(C)CCNC(=O)c1ccnc(-c2cnn3ccc(-c4cccs4)nc23)c1 [Example 9, N-(2-(dimethylamino)ethyl)-2-(5-(thiophen-2-yl)pyrazolo[1,5-a]pyrimidin-3-yl)isonicotinamide] — 4.9-fold higher, 26 nM
- O=C(c1ccnc(-c2cnn3ccc(-c4ccccc4)nc23)c1)N1CCCC[C@@H]1[C@@H]1CCCN1 [Example 93, (2-(5-phenylpyrazolo[1,5-a]pyrimidin-3-yl)pyridin-4-yl)((R)-2-((S)-pyrrolidin-2-yl)piperidin-1-yl)methanone] — 5.3-fold higher, 27.8 nM
- CCN(CC)[C@@H](C)CNC(=O)c1cc(-c2cnn3ccc(-c4cccs4)nc23)nc(N2CCC[C@@H]2COC)c1 [Example 273, N—((S)-2-(diethylamino)propyl)-2-((R)-2-(methoxymethyl)pyrrolidin-1-yl)-6-(5-(thiophen-2-yl)pyrazolo[1,5-a]pyrimidin-3-yl)isonicotinamide] — 3.7-fold lower, 1.43 nM
- CCN(CC)[C@@H](C)CNC(=O)c1cc(-c2cnn3ccc(-c4ccsc4)nc23)nc(N2CC(OC)C2)c1 [Example 165, (S)—N-(2-(diethylamino)propyl)-2-(3-methoxyazetidin-1-yl)-6-(5-(thiophen-3-yl)pyrazolo[1,5-a]pyrimidin-3-yl)isonicotinamide] — 41-fold lower, 0.13 nM
- CC1(C)CNC1CNC(=O)c1ccnc(-c2cnn3ccc(-c4ccccc4)nc23)c1 (stereo not shown) [Example 41, N-((3,3-dimethylazetidin-2-yl)methyl)-2-(5-phenylpyrazolo[1,5-a]pyrimidin-3-yl)isonicotinamide] — 22-fold higher, 119 nM
- CCN(CC)[C@@H](C)CNC(=O)c1cc(NCCCOC)nc(-c2cnn3ccc(-c4cccs4)nc23)c1 [Example 218, (S)—N-(2-(diethylamino)propyl)-2-((3-methoxypropyl)amino)-6-(5-(thiophen-2-yl)pyrazolo[1,5-a]pyrimidin-3-yl)isonicotinamide] — 31-fold lower, 0.17 nM
- CCC(CNC(=O)c1ccnc(-c2cnn3ccc(-c4ccccc4)nc23)c1)NCC1CC1 (stereo not shown) [Example 50, N-(2-((cyclopropylmethyl)amino)butyl)-2-(5-phenylpyrazolo[1,5-a]pyrimidin-3-yl)isonicotinamide] — 1.6-fold higher, 8.52 nM
- CCN(CC)[C@@H](C)CNC(=O)c1cc(-c2cnn3ccc(-c4cccs4)nc23)nc(N2CC(N(C)C)C2)c1 [Example 206, (S)—N-(2-(diethylamino)propyl)-2-(3-(dimethylamino)azetidin-1-yl)-6-(5-(thiophen-2-yl)pyrazolo[1,5-a]pyrimidin-3-yl)isonicotinamide] — 53-fold lower, 0.1 nM
- N[C@H]1CCN(C(=O)c2ccnc(-c3cnn4ccc(-c5ccccc5)nc34)c2)C1 [Example 87, (S)-(3-aminopyrrolidin-1-yl)(2-(5-phenylpyrazolo[1,5-a]pyrimidin-3-yl)pyridin-4-yl)methanone] — 8.5-fold higher, 45.2 nM
- CCN(CC)[C@@H](C)CNC(=O)c1cc(-c2cnn3ccc(-c4cccs4)nc23)nc(N2CC(Oc3ccc(F)cc3)C2)c1 [Example 210, (S)—N-(2-(diethylamino)propyl)-2-(3-(4-fluorophenoxy)azetidin-1-yl)-6-(5-(thiophen-2-yl)pyrazolo[1,5-a]pyrimidin-3-yl)isonicotinamide] — 3.4-fold higher, 18.2 nM
- NC[C@H]1CCCCN1C(=O)c1cc(-c2cnn3ccc(-c4ccccc4)nc23)nc(C2CC2)c1 [Example 117, (R)-(2-(aminomethyl)piperidin-1-yl)(2-cyclopropyl-6-(5-phenylpyrazolo[1,5-a]pyrimidin-3-yl)pyridin-4-yl)methanone] — 1.5-fold higher, 8.08 nM
- N[C@H]1CC[C@@H]2CCCN(C(=O)c3ccnc(-c4cnn5ccc(-c6ccccc6)nc45)c3)[C@@H]21 [Example 99, ((4aS,7S,7aS)-7-aminooctahydro-1H-cyclopenta[b]pyridin-1-yl)(2-(5-phenylpyrazolo[1,5-a]pyrimidin-3-yl)pyridin-4-yl)methanone] — within 1.5-fold, 6.98 nM
- CCN(CC)[C@@H](C)CNC(=O)c1cc(-c2cnn3ccc(-c4cccs4)nc23)nc(N2CCN(C(C)=O)CC2)c1 [Example 204, (S)-2-(4-acetylpiperazin-1-yl)-N-(2-(diethylamino)propyl)-6-(5-(thiophen-2-yl)pyrazolo[1,5-a]pyrimidin-3-yl)isonicotinamide] — 19-fold lower, 0.28 nM
- CCN(CC)[C@@H](C)CNC(=O)c1cc(-c2cnn3ccc(-c4cccs4)nc23)nc(N2CC(C)(N(C)C)C2)c1 [Example 248, (S)—N-(2-(diethylamino)propyl)-2-(3-(dimethylamino)-3-methylazetidin-1-yl)-6-(5-(thiophen-2-yl)pyrazolo[1,5-a]pyrimidin-3-yl)isonicotinamide] — 25-fold lower, 0.21 nM
- CCN(CC)[C@@H](C)CNC(=O)c1cc(-c2cnn3ccc(-c4cccs4)nc23)nc(N2CCC(OC)CC2)c1 [Example 247, (S)—N-(2-(diethylamino)propyl)-2-(4-methoxypiperidin-1-yl)-6-(5-(thiophen-2-yl)pyrazolo[1,5-a]pyrimidin-3-yl)isonicotinamide] — 12-fold lower, 0.46 nM
- CCN(CC)[C@@H](C)CNC(=O)c1cc(-c2c[nH]nc2C)nc(-c2cnn3ccc(-c4cccs4)nc23)c1 [Example 333, (S)—N-(2-(diethylamino)propyl)-2-(3-methyl-1H-pyrazol-4-yl)-6-(5-(thiophen-2-yl)pyrazolo[1,5-a]pyrimidin-3-yl)isonicotinamide] — 24-fold lower, 0.22 nM
- CCN(CC)[C@@H](C)CNC(=O)c1cc(OCCCOC)nc(-c2cnn3ccc(-c4cccs4)nc23)c1 [Example 351, (S)—N-(2-(diethylamino)propyl)-2-(3-methoxypropoxy)-6-(5-(thiophen-2-yl)pyrazolo[1,5-a]pyrimidin-3-yl)isonicotinamide] — 16-fold lower, 0.34 nM
- C[C@@H](CNC(=O)c1ccnc(-c2cnn3ccc(-c4cccs4)nc23)c1)NCC(F)F [Example 14, (S)—N-(2-((2,2-difluoroethyl)amino)propyl)-2-(5-(thiophen-2-yl)pyrazolo[1,5-a]pyrimidin-3-yl)isonicotinamide] — 4.5-fold higher, 23.8 nM
- CCN(CC)[C@@H](C)CNC(=O)c1cc(N[C@H](C)C(=O)NC)nc(-c2cnn3ccc(-c4cccs4)nc23)c1 [Example 239, N—((S)-2-(diethylamino)propyl)-2-(((R)-1-(methylamino)-1-oxopropan-2-yl)amino)-6-(5-(thiophen-2-yl)pyrazolo[1,5-a]pyrimidin-3-yl)isonicotinamide] — within 1.5-fold, 3.66 nM
- CCC(C)N[C@@H](C)CNC(=O)c1ccnc(-c2cnn3ccc(-c4ccccc4)nc23)c1 (stereo partly drawn) [Example 45, N-((2S)-2-(sec-butylamino)propyl)-2-(5-phenylpyrazolo[1,5-a]pyrimidin-3-yl)isonicotinamide] — 15-fold higher, 77.4 nM
- COC1CN(c2cc(C(=O)N3CC4CCC(C3)NC4)cc(-c3cnn4ccc(-c5cccs5)nc34)n2)C1 (stereo not shown) [Example 325, (-3,6-diazabicyclo[3.2.2]nonan-3-yl)(2-(3-methoxyazetidin-1-yl)-6-(5-(thiophen-2-yl)pyrazolo[1,5-a]pyrimidin-3-yl)pyridin-4-yl)methanone] — 2.4-fold lower, 2.19 nM
- CCN(CC)[C@@H](C)CNC(=O)c1cc(-c2cnn3ccc(-c4cccs4)nc23)nc(N2CC(CO)C2)c1 [Example 216, (S)—N-(2-(diethylamino)propyl)-2-(3-(hydroxymethyl)azetidin-1-yl)-6-(5-(thiophen-2-yl)pyrazolo[1,5-a]pyrimidin-3-yl)isonicotinamide] — 53-fold lower, 0.1 nM
- N[C@H]1CCCN(C(=O)c2ccnc(-c3cnn4ccc(-c5cccs5)nc34)c2)C1 [Example 83, (S)-(3-aminopiperidin-1-yl)(2-(5-(thiophen-2-yl)pyrazolo[1,5-a]pyrimidin-3-yl)pyridin-4-yl)methanone] — 3.6-fold higher, 18.8 nM
- CCN(CC)[C@@H](C)CNC(=O)c1cc(-c2cnn(C)c2)nc(-c2cnn3ccc(-c4cccs4)nc23)c1 [Example 331, (S)—N-(2-(diethylamino)propyl)-2-(1-methyl-1H-pyrazol-4-yl)-6-(5-(thiophen-2-yl)pyrazolo[1,5-a]pyrimidin-3-yl)isonicotinamide] — 66-fold lower, 0.08 nM
